Among the test systems are CCRF-CEM leukemia; HCT-116 colon; HS 578T breast; K-562 leukemia; NCI-H226 lung; NCI-H522 lung; OVCAR-5 ovarian; SK-MEL-28 melanoma; T-47D breast; TK-10 renal.
Common to all, as to assay: NCI anticancer screen, dose series, 48 h

“And” between values parts separate entries of the source, which are not always exact repeats. Equal entries are not always repeated.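 Cultured in 96-well plates, cells were exposed to test compound for 48 hours across five concentrations. The concentration for 50% growth inhibition is given as GI50. TGI is the concentration that stops growth completely.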 Bounds are passed on as bounds.

We go through 9 compounds from PubChem BioAssay (NCI).

For the compound `CC(=O)C1CC2(c3ccc(C)cc3)C(c3ccc(C)cc3)=C(c3ccc(C)cc3)C1(c1ccc(C)cc1)S2=O` (stereo not drawn), the GI50 in the assay on CCRF-CEM leukemia, with HCT-116 colon, in the assay on HS 578T breast, with K-562 leukemia, in the assay with NCI-H226 lung and in the assay on NCI-H522 lung was above 100 µM each time. Also, the GI50 is above 100 µM in the assay on OVCAR-5 ovarian, above 100 µM in the assay with SK-MEL-28 melanoma, 68 µM with T-47D breast and above 100 µM in the assay with TK-10 renal. Also, the TGI in the assay on CCRF-CEM leukemia, with HCT-116 colon, in the assay with HS 578T breast, in the assay on K-562 leukemia, in the assay on NCI-H226 lung and in the assay on NCI-H522 lung was above 100 µM each time. In addition, the TGI in the assay on OVCAR-5 ovarian, in the assay on SK-MEL-28 melanoma, in the assay on T-47D breast and in the assay with TK-10 renal was above 100 µM throughout.

With `C=C(Cl)COC(=O)Nc1cccc(Cl)c1`, the TGI in the assay with CCRF-CEM leukemia is above 100 µM; with HCT-116 colon, 78.7 µM; in the assay with HS 578T breast, above 100 µM; in the assay on K-562 leukemia, above 100 µM; with NCI-H226 lung, above 100 µM; in the assay on NCI-H522 lung, 83.6 µM. Moreover, the TGI with OVCAR-5 ovarian, with SK-MEL-28 melanoma, with T-47D breast and with TK-10 renal was above 100 µM in each case.

Consider `C=C1C[C@@H]2C/C=C/C(=O)C/C(C)=C\C=C\C(=O)O[C@H](C=O)C/C(C)=C/[C@H](C1)O2`, for which the GI50 is 0.315 µM in the assay with CCRF-CEM leukemia; 0.37 µM in the assay on HCT-116 colon; 4.23 µM in the assay with HS 578T breast; 0.16 µM with K-562 leukemia; 8.49 µM in the assay on NCI-H226 lung; 4.48 µM with NCI-H522 lung. Further, the GI50 with OVCAR-5 ovarian is 2.31 µM; with SK-MEL-28 melanoma it was 2.91 µM; with T-47D breast, 1.42 µM; in the assay on TK-10 renal it was 3.62 µM. Moreover, the TGI in the assay on CCRF-CEM leukemia is 0.956 µM; with HCT-116 colon, 3.86 µM; in the assay on HS 578T breast it was above 65.1 µM; with K-562 leukemia, above 40.2 µM; in the assay with NCI-H226 lung, 49 µM; in the assay with NCI-H522 lung, 19.5 µM. The TGI in the assay with OVCAR-5 ovarian came to 13.5 µM; in the assay on SK-MEL-28 melanoma, 20.5 µM; in the assay with T-47D breast, 54.3 µM; with TK-10 renal it was 18 µM.

`COc1ccccc1C1=C2C(=O)N(C)C(c3ccccc3OC)=C2C(=O)N1C`: the TGI in the assay on CCRF-CEM leukemia was above 100 µM; with HCT-116 colon, above 100 µM; with HS 578T breast it was 97.1 µM; in the assay on K-562 leukemia, above 100 µM; with NCI-H226 lung, above 100 µM; in the assay on NCI-H522 lung, above 100 µM. The TGI in the assay with OVCAR-5 ovarian, in the assay on SK-MEL-28 melanoma, in the assay with T-47D breast and in the assay on TK-10 renal was above 100 µM throughout.

In the case of `O=C1/C(=C/c2ccc(O)c([N+](=O)[O-])c2)CCC/C1=C\c1ccc(O)c([N+](=O)[O-])c1`, the GI50 with CCRF-CEM leukemia was 14.9 µM; in the assay with HCT-116 colon, 26.8 µM; with K-562 leukemia, 20.9 µM; in the assay on NCI-H226 lung, 33.7 µM; in the assay on NCI-H522 lung, 1.49 µM; in the assay on OVCAR-5 ovarian, 21.9 µM. The GI50 with SK-MEL-28 melanoma was 19.9 µM; in the assay with TK-10 renal it was 38.8 µM. In addition, the TGI is 50 µM and 56.2 µM with CCRF-CEM leukemia; 18.7 µM and > 100 µM with HCT-116 colon; 60.3 µM with HS 578T breast; 50 µM and 64.4 µM in the assay on K-562 leukemia; 24.7 µM and > 100 µM in the assay on NCI-H226 lung; 22.6 µM and 3.08 µM in the assay with NCI-H522 lung. Also, the TGI was 33.8 µM and 39.5 µM with OVCAR-5 ovarian; 20.3 µM and 45 µM with SK-MEL-28 melanoma; 47.5 µM with T-47D breast; 50 µM and > 100 µM with TK-10 renal.

With `CCCCCNC(=O)[C@@H]1CCCN2C(=O)CC[C@H](NC(=O)[C@H](Cc3ccc(OP(=O)(O)O)cc3)NC(C)=O)C(=O)N12`, the GI50 with CCRF-CEM leukemia, in the assay with HCT-116 colon, in the assay with HS 578T breast, with K-562 leukemia, with NCI-H226 lung and with NCI-H522 lung was above 25 µM throughout. Besides, the GI50 in the assay with OVCAR-5 ovarian, in the assay with SK-MEL-28 melanoma, in the assay on T-47D breast and with TK-10 renal was above 25 µM throughout. The TGI in the assay on CCRF-CEM leukemia, in the assay on HCT-116 colon, with HS 578T breast, in the assay with K-562 leukemia, in the assay on NCI-H226 lung and in the assay with NCI-H522 lung was above 25 µM throughout. The TGI in the assay with OVCAR-5 ovarian, in the assay with SK-MEL-28 melanoma, in the assay with T-47D breast and in the assay with TK-10 renal was above 25 µM in each case.

In the case of `CN(C)NC1=NS(=O)(=O)c2cc3c(cc2S1)N(N(C)C)C(=O)c1cc2c(cc1N(N(C)C)C3=O)SC(NN(C)C)=NS2(=O)=O`, the TGI in the assay with CCRF-CEM leukemia, in the assay with HCT-116 colon, with HS 578T breast, in the assay on K-562 leukemia, in the assay with NCI-H226 lung and with NCI-H522 lung was above 10 µM throughout. The TGI with OVCAR-5 ovarian, with SK-MEL-28 melanoma, in the assay on T-47D breast and with TK-10 renal was above 10 µM throughout.

For the compound `OCC(O)C(O)C(O)C1SC(c2ccccc2)=NN1c1ccccc1` (stereo not drawn), the TGI with CCRF-CEM leukemia is above 100 µM; in the assay with HCT-116 colon, above 100 µM; with HS 578T breast it was above 100 µM; with K-562 leukemia it was above 100 µM; in the assay with NCI-H226 lung, above 100 µM; in the assay with NCI-H522 lung, 75.4 µM. In addition, the TGI with OVCAR-5 ovarian was above 100 µM; in the assay with SK-MEL-28 melanoma it was above 100 µM; in the assay with T-47D breast it was above 70.3 µM; in the assay with TK-10 renal, above 95.7 µM.

On to `CCOC(=O)CCCn1c(SC)nc2cc(-c3ccco3)[nH]c2c1=O`, for which the GI50 is above 100 µM in the assay with CCRF-CEM leukemia; 49.8 µM in the assay with HCT-116 colon; 25.6 µM in the assay on HS 578T breast; above 100 µM with K-562 leukemia; above 100 µM with NCI-H226 lung; 35.1 µM in the assay on NCI-H522 lung. The GI50 in the assay with OVCAR-5 ovarian was above 100 µM; in the assay on SK-MEL-28 melanoma it was above 100 µM; in the assay on T-47D breast, 39.6 µM; in the assay with TK-10 renal, 35.1 µM. The TGI with CCRF-CEM leukemia, with HCT-116 colon, with HS 578T breast, with K-562 leukemia, in the assay on NCI-H226 lung and with NCI-H522 lung was above 100 µM throughout. Also, the TGI in the assay with OVCAR-5 ovarian, in the assay on SK-MEL-28 melanoma, in the assay with T-47D breast and in the assay with TK-10 renal was above 100 µM each time.
